From patent publication US9187471B2, “Pyrido [4,3-b] indole and pyrido [3,4-b] indole derivatives and methods of use” (Medivation Technologies, Inc., priority 2010, dated 2015)

Tests used:
[1] = molecular target: T1, human recombinant dopamine D2L receptor (Homo sapiens, UniProt P14416); experiment: Dopamine D2L radioligand binding ([3H]Spiperone); details: 0.16 nM [3H]Spiperone; for inhibition at 1 µM: read-out: Dopamine D2L (1 μM), percent inhibition of specific binding, compound at 1 μM; for inhibition at 0.1 µM: read-out: Dopamine D2L (0.1 μM), percent inhibition of specific binding, compound at 0.1 μM
T1 construct: expressed in transfected cells; host or cells: CHO
Experimental: Non-specific binding was estimated in the presence of 10 μM Haloperidol. Receptor proteins were filtered and washed, the filters were then counted to determine [^3H]Spiperone specifically bound.

[2] = molecular target: T2, human recombinant histamine H1 receptor (Homo sapiens, UniProt P35367); experiment: Histamine H1 radioligand binding ([3H]Pyrilamine); details: read-out: Histamine H1 Binding (1 μM), percent inhibition of specific binding; compound at 1 μM; 1.2 nM [3H]Pyrilamine
T2 construct: expressed in transfected cells; host or cells: CHO-K1
Method in brief: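 Human recombinant H1 receptor expressed in CHO-K1 cells, in 50 mM Tris-HCl pH 7.4 with 2 mM MgCl2, 100 mM NaCl, 250 mM sucrose. Non-specific binding defined with 1 μM pyrilamine; bound [3H]pyrilamine counted after filtration and washing. Values are percent inhibition of specific binding.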

[3] = molecular target: T3, human recombinant adrenergic α2C receptor (Homo sapiens, UniProt P18825); experiment: Adrenergic α2C radioligand binding ([3H]MK-912); details: read-out: Adrenergic (0.1 μM) a2C, percent inhibition of specific binding; compound at 0.1 μM; 1 nM [3H]MK-912
T3 construct: expressed in transfected cells; host or cells: insect Sf9 cells
T3 sequence (P18825 1-462): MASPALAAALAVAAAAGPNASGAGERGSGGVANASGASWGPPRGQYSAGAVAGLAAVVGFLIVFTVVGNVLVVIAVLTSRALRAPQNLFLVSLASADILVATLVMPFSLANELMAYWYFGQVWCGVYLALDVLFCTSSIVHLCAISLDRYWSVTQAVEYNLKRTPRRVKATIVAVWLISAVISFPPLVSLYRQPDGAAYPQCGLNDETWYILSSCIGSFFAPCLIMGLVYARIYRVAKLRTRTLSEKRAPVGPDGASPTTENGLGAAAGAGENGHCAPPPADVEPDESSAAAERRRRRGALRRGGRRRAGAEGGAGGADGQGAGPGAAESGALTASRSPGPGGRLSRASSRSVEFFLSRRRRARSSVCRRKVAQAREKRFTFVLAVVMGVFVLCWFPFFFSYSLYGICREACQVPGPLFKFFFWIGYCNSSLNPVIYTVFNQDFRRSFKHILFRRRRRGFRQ
Method in brief: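 Membranes from Sf9 cells expressing the human receptor, in 50 mM Tris-HCl pH 7.4 with 12.5 mM MgCl2 and 2 mM EDTA, incubated with compound and 1 nM [3H]MK-912 for 60 min at 25 °C. Non-specific binding defined with 10 μM WB-4101. Filter-bound radioactivity counted; percent inhibition of specific binding reported.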

[4] = molecular target: T4, human recombinant serotonin (5-Hydroxytryptamine) 5-HT2C receptor (Homo sapiens, UniProt P28335); experiment: Serotonin 5-HT2C radioligand binding ([3H]Mesulergine); details: compound at 0.1 μM; read-out: Inhibition of ligand binding, Serotonin 5-HT2C (percent inhibition of specific binding)
T4 construct: expressed in transfected cells; host or cells: CHO-K1
T4 sequence (P28335 33-458): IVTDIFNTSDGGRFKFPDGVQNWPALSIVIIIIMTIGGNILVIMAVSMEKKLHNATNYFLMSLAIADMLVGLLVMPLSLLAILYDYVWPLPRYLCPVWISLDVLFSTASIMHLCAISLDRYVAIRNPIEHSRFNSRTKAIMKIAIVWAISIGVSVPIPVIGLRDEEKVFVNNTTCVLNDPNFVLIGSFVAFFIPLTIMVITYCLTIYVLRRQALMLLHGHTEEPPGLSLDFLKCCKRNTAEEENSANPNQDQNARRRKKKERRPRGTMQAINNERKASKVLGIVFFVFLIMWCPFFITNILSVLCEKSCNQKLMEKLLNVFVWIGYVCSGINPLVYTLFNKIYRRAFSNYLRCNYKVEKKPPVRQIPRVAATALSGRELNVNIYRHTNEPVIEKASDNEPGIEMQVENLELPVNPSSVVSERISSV
Experimental: Compounds of the invention were incubated with 1 nM [^3H]Mesulergine for 60 min at 25° C. Non-specific binding was estimated in the presence of 1 μM Mianserin. Receptor proteins were filtered and washed, the filters were then counted to determine [^3H]Mesulergine specifically bound.

[5] = molecular target: T5, human recombinant serotonin (5-Hydroxytryptamine) 5-HT7 receptor (Homo sapiens, UniProt P34969); experiment: Serotonin 5-HT7 radioligand binding ([3H]LSD); details: compound at 0.1 μM; read-out: Inhibition of ligand binding, Serotonin 5-HT7 (percent inhibition of specific binding)
T5 construct: expressed in transfected cells; host or cells: CHO
Experimental: Lysergic acid diethylamide (LSD) for 120 min. at 25° C. […] Receptor proteins were filtered and washed, the filters were then counted to determine [^3H]LSD specifically bound.

[6] = molecular target: T6, human recombinant serotonin (5-Hydroxytryptamine) 5-HT6 receptor (Homo sapiens, UniProt P50406); experiment: Serotonin 5-HT6 radioligand binding ([3H]LSD); details: compound at 0.1 μM; read-out: Inhibition of ligand binding, Serotonin 5-HT6 (percent inhibition of specific binding)
T6 construct: expressed in transfected cells; host or cells: HeLa
Source text: Receptor proteins were filtered and washed, the filters were then counted to determine [3H]LSD specifically bound.

[7] = molecular target: T7, human recombinant serotonin (5-Hydroxytryptamine) 5-HT5A receptor (Homo sapiens, UniProt P47898); experiment: Serotonin 5-HT5A radioligand binding ([3H]LSD); details: compound at 0.1 μM; read-out: Inhibition of ligand binding, Serotonin 5-HT5A (percent inhibition of specific binding)
T7 construct: expressed in transfected cells; host or cells: CHO-K1
Experimental: Compounds of the invention were incubated with 1.7 nM [^3H]Lysergic acid diethylamide (LSD) for 60 min at 37° C. […] Receptor proteins were filtered and washed, the filters were counted to determine [^3H]LSD specifically bound.

[8] = molecular target: T8, human recombinant serotonin (5-Hydroxytryptamine) 5-HT2A receptor (Homo sapiens, UniProt P28223); experiment: Serotonin 5-HT2A radioligand binding ([3H]Ketanserin); details: compound at 0.1 μM; read-out: Inhibition of ligand binding, Serotonin 5-HT2A (percent inhibition of specific binding)
T8 construct: expressed in transfected cells; host or cells: CHO-K1
Experimental: Compounds of the invention were incubated with 0.5 nM [^3H]Ketanserin for 60 min at 25° C. Non-specific binding was estimated in the presence of 1 μM Mianserin. Receptor proteins were filtered and washed, the filters were then counted to determine [^3H]Ketanserin specifically bound.

T1 sequence (P14416 whole entry): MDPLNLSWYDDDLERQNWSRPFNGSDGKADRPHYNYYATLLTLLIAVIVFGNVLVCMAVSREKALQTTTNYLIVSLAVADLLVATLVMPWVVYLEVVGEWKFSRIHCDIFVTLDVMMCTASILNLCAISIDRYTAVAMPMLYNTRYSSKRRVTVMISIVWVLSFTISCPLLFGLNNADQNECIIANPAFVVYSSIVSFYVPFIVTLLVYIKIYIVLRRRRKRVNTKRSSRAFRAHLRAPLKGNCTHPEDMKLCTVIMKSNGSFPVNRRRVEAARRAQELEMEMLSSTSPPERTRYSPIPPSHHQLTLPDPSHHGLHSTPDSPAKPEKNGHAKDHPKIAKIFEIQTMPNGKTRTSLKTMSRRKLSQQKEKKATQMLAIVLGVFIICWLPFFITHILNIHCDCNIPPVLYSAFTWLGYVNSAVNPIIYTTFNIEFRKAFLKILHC
T8 sequence (P28223 whole entry): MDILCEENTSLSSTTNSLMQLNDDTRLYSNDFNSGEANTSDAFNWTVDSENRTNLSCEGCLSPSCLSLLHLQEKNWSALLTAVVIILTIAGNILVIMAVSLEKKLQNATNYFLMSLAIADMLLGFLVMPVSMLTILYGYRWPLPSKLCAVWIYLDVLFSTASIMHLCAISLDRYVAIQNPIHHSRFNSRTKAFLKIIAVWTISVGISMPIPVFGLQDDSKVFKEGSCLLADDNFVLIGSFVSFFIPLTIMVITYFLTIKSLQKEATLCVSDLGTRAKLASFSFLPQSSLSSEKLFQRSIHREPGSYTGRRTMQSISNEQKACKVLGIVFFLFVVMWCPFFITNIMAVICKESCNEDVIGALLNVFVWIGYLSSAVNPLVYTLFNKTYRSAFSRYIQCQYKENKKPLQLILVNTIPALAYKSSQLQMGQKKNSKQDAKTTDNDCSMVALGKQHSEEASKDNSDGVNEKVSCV
T6 sequence (P50406 whole entry): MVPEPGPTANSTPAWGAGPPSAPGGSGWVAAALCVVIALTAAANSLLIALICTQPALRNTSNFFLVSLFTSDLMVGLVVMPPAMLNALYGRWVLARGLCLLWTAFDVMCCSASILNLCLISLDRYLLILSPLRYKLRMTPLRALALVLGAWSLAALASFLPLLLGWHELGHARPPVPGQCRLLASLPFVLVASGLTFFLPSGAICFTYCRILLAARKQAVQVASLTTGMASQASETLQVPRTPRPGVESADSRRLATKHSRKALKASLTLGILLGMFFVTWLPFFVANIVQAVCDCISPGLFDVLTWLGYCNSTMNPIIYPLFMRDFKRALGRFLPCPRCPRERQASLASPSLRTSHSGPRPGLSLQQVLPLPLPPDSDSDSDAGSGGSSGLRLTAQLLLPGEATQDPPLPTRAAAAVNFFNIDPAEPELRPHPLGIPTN
T7 sequence (P47898 whole entry): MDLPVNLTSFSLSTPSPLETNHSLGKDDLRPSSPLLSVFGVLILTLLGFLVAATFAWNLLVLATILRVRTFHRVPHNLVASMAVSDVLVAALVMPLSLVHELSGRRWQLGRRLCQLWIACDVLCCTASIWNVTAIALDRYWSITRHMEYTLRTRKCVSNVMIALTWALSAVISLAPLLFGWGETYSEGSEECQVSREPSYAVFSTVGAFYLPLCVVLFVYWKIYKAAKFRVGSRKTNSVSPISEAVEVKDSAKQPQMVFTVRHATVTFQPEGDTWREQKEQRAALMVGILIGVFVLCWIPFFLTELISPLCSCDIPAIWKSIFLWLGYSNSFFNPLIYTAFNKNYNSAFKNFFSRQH
T5 sequence (P34969 whole entry): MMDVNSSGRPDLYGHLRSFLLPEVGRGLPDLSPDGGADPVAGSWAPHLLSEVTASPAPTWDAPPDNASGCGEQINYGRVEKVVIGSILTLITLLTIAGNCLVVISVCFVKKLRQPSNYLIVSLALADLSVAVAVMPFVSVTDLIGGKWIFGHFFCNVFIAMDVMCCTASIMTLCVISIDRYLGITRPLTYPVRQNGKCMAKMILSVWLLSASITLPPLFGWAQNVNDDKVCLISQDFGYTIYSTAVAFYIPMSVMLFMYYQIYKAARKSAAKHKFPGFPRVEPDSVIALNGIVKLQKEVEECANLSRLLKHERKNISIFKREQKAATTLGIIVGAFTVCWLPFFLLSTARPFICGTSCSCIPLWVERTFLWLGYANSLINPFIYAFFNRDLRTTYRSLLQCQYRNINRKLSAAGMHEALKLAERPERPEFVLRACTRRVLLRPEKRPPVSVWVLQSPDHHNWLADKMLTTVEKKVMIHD
T2 sequence (P35367 whole entry): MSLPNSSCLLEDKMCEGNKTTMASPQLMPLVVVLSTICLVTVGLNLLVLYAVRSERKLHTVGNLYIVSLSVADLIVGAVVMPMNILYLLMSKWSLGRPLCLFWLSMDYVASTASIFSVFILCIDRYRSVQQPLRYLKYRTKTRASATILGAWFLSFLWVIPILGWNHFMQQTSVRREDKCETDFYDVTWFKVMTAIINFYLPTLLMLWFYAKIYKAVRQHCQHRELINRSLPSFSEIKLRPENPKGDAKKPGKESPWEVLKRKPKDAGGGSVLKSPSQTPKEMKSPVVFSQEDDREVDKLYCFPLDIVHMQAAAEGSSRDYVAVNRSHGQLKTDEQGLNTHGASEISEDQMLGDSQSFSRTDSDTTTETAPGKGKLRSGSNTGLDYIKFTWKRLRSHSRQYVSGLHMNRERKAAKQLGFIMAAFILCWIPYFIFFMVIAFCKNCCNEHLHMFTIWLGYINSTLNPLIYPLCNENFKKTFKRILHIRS

| SMILES | inhibition at 1 µM [1] [%] | inhibition at 1 µM [2] [%] | inhibition at 0.1 µM [3] [%] | inhibition at 0.1 µM [4] [%] | inhibition at 0.1 µM [5] [%] | inhibition at 0.1 µM [6] [%] | inhibition at 0.1 µM [7] [%] | inhibition at 0.1 µM [8] [%] | inhibition at 0.1 µM [1] [%] |
| --- | --- | --- | --- | --- | --- | --- | --- | --- | --- |
| Cc1ccc2c(c1)c1c(n2-c2cccc(-c3ccnn3C)c2)CCN(C)C1 [Compound No. 66, 2,8-dimethyl-5-(3-(1-methyl-1H-pyrazol-5-yl)phenyl)-2,3,4,5-tetrahydro-1H-pyrido[4,3-b]indole] | 24 | 43 | 8 | 55 | 32 | 30 | 36 | 90 | – |
| Cc1ccc2c(c1)c1c(n2-c2cccc(-c3ccc4[nH]cnc4c3)c2)CCN(C)C1 [Compound 54, 5-(3-(1H-benzo[d]imidazol-5-yl)phenyl)-2,8-dimethyl-2,3,4,5-tetrahydro-1H-pyrido[4,3-b]indole] | 22 | 40 | 12 | 21 | 26 | 25 | 33 | 92 | – |
| Cc1ccc2c(c1)c1c(n2-c2cccc(-c3cnn(C)c3)c2)CCN(C)C1 [Compound 46, 2,8-dimethyl-5-(3-(1-methyl-1H-pyrazol-4-yl)phenyl)-2,3,4,5-tetrahydro-1H-pyrido[4,3-b]indole] | 20 | 19 | 6 | 41 | 51 | 14 | 32 | 84 | – |
| CC(=O)Nc1ccc(-c2cscc2-n2c3c(c4cc(C)ccc42)CN(C)CC3)cn1 [Compound 56] | 10 | 10 | 2 | 38 | 70 | 16 | 51 | 31 | – |
| CNC(=O)c1cccc(-c2ccc(-n3c4c(c5cc(C)ccc53)CN(C)CC4)nc2)c1 [Compound No. 143, 3-(6-(2,8-dimethyl-3,4-dihydro-1H-pyrido[4,3-b]indol-5(2H)-yl)pyridin-3-yl)-N-methylbenzamide] | 19 | 8 | 8 | 44 | 11 | -8 | 17 | 55 | – |
| Cc1ccc2c(c1)c1c(n2-c2cccc(-c3cccn3C)c2)CCN(C)C1 [Compound No. 69, 2,8-dimethyl-5-(3-(1-methyl-1H-pyrrol-2-yl)phenyl)-2,3,4,5-tetrahydro-1H-pyrido[4,3-b]indole] | 12 | 42 | -4 | 79 | 25 | 21 | 36 | 99 | – |
| Cc1ccc2c(c1)c1c(n2-c2ccc3cnccc3c2)CCN(C)C1 [Compound 38] | 53 | -4 | 11 | 88 | 33 | 73 | 29 | 84 | – |
| Cc1ccc2c(c1)c1c(n2-c2cscc2C(=O)N(C)C)CCN(C)C1 [Compound No. 152] | – | 16 | 12 | 22 | 15 | 22 | 14 | 31 | 4 |
| Cc1ccc2c(c1)c1c(n2-c2ccccc2-c2ccc(C)s2)CCN(C)C1 [Compound No. 81, 2,8-dimethyl-5-(2-(5-methylthiophen-2-yl)phenyl)-2,3,4,5-tetrahydro-1H-pyrido[4,3-b]indole] | 19 | 57 | 41 | 89 | 72 | 44 | 69 | 87 | – |
| Cc1ccc2c(c1)c1c(n2-c2cccc(-c3ccc(O)nc3)c2)CCN(C)C1 [Compound 52, 5-(3-(2,8-dimethyl-3,4-dihydro-1H-pyrido[4,3-b]indol-5(2H)-yl)phenyl)pyridin-2-ol] | 21 | 14 | 2 | 19 | 14 | 17 | 55 | 76 | – |
| Cc1ccc2c(c1)c1c(n2-c2cscc2-c2c(C)noc2C)CCN(C)C1 [Compound 62] | 16 | 27 | 33 | 56 | 48 | 28 | 54 | 68 | – |
| Cc1ccc2c(c1)c1c(n2-c2ccc3nc(C)ccc3c2)CCN(C)C1 [Compound No. 157, 2,8-dimethyl-5-(2-methyl-quinolin-6-yl)-2,3,4,5-tetrahydro-1H-pyrido[4,3-b]indole] | – | -17 | -1 | 88 | 16 | 22 | 20 | 88 | -6 |
| Cc1ccc2c(c1)c1c(n2-c2cccc(-c3sccc3C)c2)CCN(C)C1 [Compound 43, 2,8-dimethyl-5-(3-(3-methylthiophen-2-yl)phenyl)-2,3,4,5-tetrahydro-1H-pyrido[4,3-b]indole] | 26 | 26 | -16 | 8 | 33 | 28 | 39 | 102 | – |
| CNC(=O)c1ccc(-c2cscc2-n2c3c(c4cc(C)ccc42)CN(C)CC3)cn1 [Compound No. 73] | 21 | 20 | 2 | 43 | 66 | 21 | 48 | 64 | – |
